Results taken from the Deep4Chem optical property database.
Values belong to the compound of their own block, whether it stands above or below them.

Assay: solvent given as SMILES

SMILES: C[Si]1(C)C2=C(c3ccc(N(c4ccccc4)c4ccccc4)cc31)P(=O)(c1ccccc1)c1ccccc12 (centres undefined)
- emission maximum (in CC#N): 611 nm
- emission maximum (in CO): 624 nm
- emission maximum (in Cc1ccccc1): 544 nm

SMILES: CN(C)c1ccc(C=C/C=C/C=C/c2ccc(C#N)cc2)cc1
- emission maximum (in C1CCOC1): 609 nm
- emission maximum (in CC#N): 658 nm
- emission maximum (in CCCC#N): 640 nm
- emission maximum (in CCCCCC): 467 nm
- emission maximum (in CCCCOCCCC): 541 nm
- emission maximum (in CCO): 637 nm
- emission maximum (in CCOCC): 567 nm

SMILES: CCC1(CC)c2cc(-c3ccc4c(c3)C(CC)(CC)c3cc(C(C)(C)C)ccc3-4)ccc2-c2ccc(-c3ccc4c(c3)C(CC)(CC)c3cc(C(C)(C)C)ccc3-4)cc21
- emission maximum (in CO): 385.59 nm

SMILES: c1ccc(-n2c(-c3cccc4ccccc34)nc3c4cccc5ccc6cccc(c6c54)c32)cc1
- emission maximum (in C1CCOC1): 422.46 nm
- emission maximum (in CCCCCC): 384 nm
- emission maximum (in CS(C)=O): 436 nm
- emission maximum (in Cc1ccccc1): 420 nm
- emission maximum (in ClCCl): 424.78 nm

SMILES: N#CC(C#N)=Cc1ccc2nc(C#Cc3ccc(N(c4ccccc4)c4ccccc4)cc3)sc2c1
- emission maximum (in Cc1ccccc1): 535 nm

SMILES: O=C(O)C1=C/C(=C/C=[NH+]/c2ccc3c(C(F)(F)F)cc(=O)oc3c2)CC(C(=O)O)N1 (centres undefined)
- emission maximum (in O): 570 nm

SMILES: N#Cc1cc(-n2c3ccccc3c3ncccc32)c(-n2c3ccccc3c3ncccc32)cc1C#N
- emission maximum (in CC#N): 520.47 nm
- emission maximum (in CCCCCC): 443.72 nm
- emission maximum (in Cc1ccccc1): 450.7 nm
- emission maximum (in ClCCl): 476.51 nm
- emission maximum (in c1cc(-n2c3ccccc3c3ccccc32)cc(-n2c3ccccc3c3ccccc32)c1): 477.27 nm

SMILES: COc1cc(C2=c3c(c4ccc(C(C)(C)C)cc4c4c(OC)c(OC)c(OC)cc34)=[N+]3C2=Nc2c(-c4cc(OC)c(OC)c(OC)c4)c4c5cc(OC)c(OC)c(OC)c5c5cc(C(C)(C)C)ccc5c4n2[B-]3(F)F)cc(OC)c1OC
- emission maximum (in Cc1ccccc1): 820 nm

SMILES: CC1(C)c2ccccc2N(c2ccc(-c3ccc(C#N)nc3)cc2)c2ccccc21
- emission maximum (in Cc1ccccc1): 488 nm
- emission maximum (in N#Cc1ccc2c(c1)c1ccccc1n2-c1cccc(-n2c3ccccc3c3ccccc32)c1): 490 nm

SMILES: CCCCCCCCCCCCCCCCn1c(-c2cc(-c3nc4ccccc4n3CCCCCCCCCCCCCCCC)cc(-c3nc4ccccc4n3CCCCCCCCCCCCCCCC)c2)nc2ccccc21
- emission maximum (in C1CCOC1): 363 nm

Second part, the compound after the results:

- emission maximum (in CC#N): 557 nm
SMILES: CCCn1c2cccc3c2[c+]2c4c1cccc4n(CCC)c1cccc(c12)n3CCC

- emission maximum (in CS(C)=O): 649 nm
SMILES: O=C(O)CCCOc1cccc(-c2c3nc(cc4ccc([nH]4)c(-c4cccc(OCCCC(=O)O)c4)c4nc(cc5ccc2[nH]5)CC4)C=C3)c1

- emission maximum (in CCO): 452 nm
SMILES: Cc1c(COC(=O)Cc2c[nH]c3ccccc23)n2c(OCC(=O)Cc3c[nH]c4ccccc34)c(C)c(=O)n2c1=O

- emission maximum (in ClCCl): 405 nm
SMILES: O=c1c2ccccc2n(-c2ccc(-c3ccc(-n4c5ccccc5c(=O)c5ccccc54)cc3)cc2)c2ccccc12

- emission maximum (in C1CCOC1): 493 nm
SMILES: COc1ccc(-c2cc3c(cc2OC)-c2c(c4c(c5c2-c2cc(OC)c(-c6ccc(OC)cc6)cc2C5)C(=O)N(CCC(C)C)C4=O)C3)cc1

- emission maximum (in ClC(Cl)Cl): 676 nm
SMILES: CCCCCCCCOc1ccc(-c2c3c4n(c(-c5ccc(OCCCCCCCC)cc5)c3c3n2[B-](F)(F)[n+]2c(sc5ccccc52)N=3)[B-](F)(F)[n+]2c(sc3ccccc32)N=4)cc1

- emission maximum (in ClCCl): 506 nm
SMILES: CC(=O)c1ccc(-c2cccc3ncc(-c4ccccc4)n23)cc1

- emission maximum (in ClCCl): 617 nm
SMILES: Cc1cc(C)c(-c2c3ccccc3c3ccc4cc5c(-c6c(C)cc(C)cc6C)c6ccccc6c6ccc7cc2c3c4c7c56)c(C)c1

- emission maximum (in CS(C)=O): 409 nm
SMILES: Fc1ccc2sc3nc(-c4ccccc4)sc3c2c1

- emission maximum (in ClCCl): 558 nm
SMILES: CC1=C(I)C(C)=[N+]2C1=C(c1c(-c3ccccn3)nc3ccccn13)c1c(C)cc(C)n1[B-]2(F)F

- emission maximum (in C1CCCCC1): 425 nm
SMILES: C(#Cc1cnc(C#Cc2ccccc2)nc1)c1ccccc1

- emission maximum (in CCCCCC): 617 nm
SMILES: CC(C)[Si](C#Cc1c2nsnc2c(C#C[Si](C(C)C)(C(C)C)C(C)C)c2nc3c(ccc4ccccc43)nc12)(C(C)C)C(C)C
